From patent US7867948B2, “Use of guanidine compounds as physiological strengthening agents in the form of nutritional supplements, animal feed additives, in cosmetic preparations and as plant stimulants” (Alzchem Trostberg GmbH, priority 2004, dated 2011)

Legend:
rats = details: experiments of GB 1 468 998; cited from earlier work
[1] = test system: chickens raised for market; assay: Feed for chickens raised for market (feed additive trial); assay type: in vivo; design: dose or concentration left out as unconfirmed; details: 0.2 wt.-% added to air-dried food
Description: 2. Animal Feed Additive • 2.1 A formulation consisting of 5,000 mg creatinol-O -phosphate and 5,000 mg inulin was added to a typical formula for feed pellets as a food supplement for horses. • 2.2 A formulation consisting of 7,000 mg creatinol sulfate, 750 mg carnitine tartrate, 100 mg sucrose stearate, 160 mg talc, and 1,090 mg fructose was added to the base mixture for making dog biscuits. • 2.3 As a master batch, the following formulation was added to a regular commercial canned cat food mixture: 3,000 mg creatinol sulfate, 3,000 mg creatine, 40 mg magnesium stearate, 25 mg carboxymethylcellulose and 135 mg lactose. • 2.4 Feed for chickens raised for market
In addition the feed consumption was about 2 to 3% less than in former feeding methods.

[2] = after administration; Arzneimittelforschung 1979, 29 (9A) 1477-79; cited from earlier work

Row | SMILES | swimming activity increased (rats) [%] | meat quality ([1]; 41 days feeding time) | increase in the final weight versus former feeding methods without addition of creatinol ([1]; after 41 days feeding time) [%] | creatinine levels in the urine [2]
1 | CN(CCO)C(=N)N.NC(CC(=O)O)C(=O)O (stereo not shown) [creatinol aspartate] | 30 |  |  | 
2 | CN(CCOP(=O)(O)O)C(=N)N [creatinol-O-phosphate] |  | improved quality | 4 | increase
